This is an account of results in article PMC8748872, “Crystal structure and functional implication of bacterial STING” (Nature Communications, 2022).

For assay [1], the target named is T1, PcSTING (Prevotella corporis, UniProt A0A133PTK7).
T1 construct: gene HMPREF3226_02659; C-terminal STING domain only; N-terminal His6-MBP or His6-SUMO tag removed by TEV; E. coli BL21(DE3); homodimer
The assay is described as follows: crystal structure; LC-MS/MS of co-purified ligand. The settings on record: co-purified endogenous ligand from E. coli; 2.25 A for the SeMet form. It is filed as binding.

The target in assay [2] is full-length TIR-STING protein from Myroides sp. ZB35 (MyTIR-STING) (Myroides sp. ZB35). The assay is described as follows: SEC; 16/60 Superdex 200 increase column; 20 mM Tris pH 8.0, 200 mM NaCl, 5% glycerol, 1 mM TCEP; no c-di-GMP added.

T1 sequence (A0A133PTK7 entry or part of it): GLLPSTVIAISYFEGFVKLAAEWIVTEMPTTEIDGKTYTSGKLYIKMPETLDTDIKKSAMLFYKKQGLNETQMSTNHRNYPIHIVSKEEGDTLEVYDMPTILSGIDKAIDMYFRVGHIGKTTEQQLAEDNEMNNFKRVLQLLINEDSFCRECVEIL

Consider `Nc1nc2c(ncn2[C@@H]2O[C@@H]3COP(=O)(O)O[C@H]4[C@@H](O)[C@H](n5cnc6c(=O)[nH]c(N)nc65)O[C@@H]4COP(=O)(O)O[C@H]3[C@H]2O)c(=O)[nH]1` [c-di-GMP], for which the “crystal structure; LC-MS/MS of co-purified ligand” value in assay [1] is “PcSTING/c-di-GMP and MySTING/c-di-GMP complexes have been deposited in the Protein Data Bank”.

As to “full-length TIR-STING protein from Myroides sp. ZB35 (MyTIR-STING) (natural protein)”, the stoichiometry N in assay [2] was 2.
